Species on record: Cavia porcellus
Test: Tested for inhibition of field-stimulation-induced contraction in the isolated guinea pig ileum
Format: functional
Settings: read-out: ID50 (the source's name)

Structure (SMILES) | IC50 [nM]
Cc1ccc2c(c1)-c1cccc3c1[C@@H](C2)N(C)CC3 | 6800
Cc1ccc2c(c1)-c1cccc3c1[C@H](C2)N(C)CC3 | 1200
CCCN(CCC)C1CCc2cccc(O)c2C1 (racemic) [8-OH-DPAT] | 60
